Assay results reported in patent US20120171133A1, “Modulation of Dynein in Skin” (AVON PRODUCTS, INC., priority 2010, published 2012).

Key:
[1] = system: mRNA for the heavy chain DYNC1H1 of cytoplasmic dynein; assay: Dynein modulation assay (Panomics Quantigene multiplex, branched DNA) in keratinocytes; assay type: cell-based, human; conditions: for Effect (down-regulation scale) / Effect (up-regulation scale): keratinocytes (K), 24 hours
Protocol: (§1) Normal human dermal fibroblasts or keratinocytes were cultured in 96-well tissue culture treated plates, containing appropriate culture medium. Stock solution of actives were made in an appropriate vehicle (water/Ethanol/Propylene glycol). Cells were treated with test material or respective vehicle control diluted in growth medium for 24 hours in a humidified 37° C. Incubator with 10% CO2. After incubation, growth medium from each plate was removed and 100 μL of lysis buffer was added to the wells and placed in 37° C. Incubator with 10% CO2 for 30 minutes. At the end of incubation, the cells are collected in freezer plates and placed in −80° C. freezer, until analysis. Changes in mRNA for Dynein after treatment were analyzed using Panomics Quantigene multiplex assay that employs a branched DNA technology, following manufacturer's instructions (Affymetrix, Calif.). Percent increase (up-regulation) or decrease (down-regulation) in mRNA for the heavy chain DYNC1H1 of cytoplasmic dynein was calculated by comparing the test results to the control. The percent up-regulation or down-regulation is converted to a scaled score as shown below in Table 3.

[2] = system: mRNA for the heavy chain DYNC1H1 of cytoplasmic dynein; assay: Dynein modulation assay (Panomics Quantigene multiplex, branched DNA) in fibroblasts; assay type: cell-based, human; conditions: fibroblasts (F), 24 hours
Protocol: as §1

## CCCCC(CC)C(=O)Nc1ccc(N2CCN(C(=O)C3CCCCC3)CC2)cc1 (stereo not shown) [Compound 7]
[1]; Conc. 0.00005%
  Effect (down-regulation scale): − (21-40)

## CCc1ccccc1NC(=O)N(Cc1ccc(OS(C)(=O)=O)cc1)CC(C)C [Compound 8]
[2]; Conc. 0.0005%
  Effect (down-regulation scale): − (21-40)

## O=C(O)c1cc(Cl)ccc1O [5-Chlorosalicylic acid]
[1]; Conc. 0.1%
  Effect (down-regulation scale): −− (41-60)
[1]; keratinocytes, p=0.02
  reduction of mRNA for the heavy chain DYNC1H1 of cytoplasmic dynein: 45.03%

## CCOCCCNC(=O)c1coc(CN(CCCOCC)C(=O)c2cccc(Br)c2)n1 [Compound 6]
[1]; Conc. 0.0005%
  Effect (down-regulation scale): − (21-40)

## CCCCCCCC(=O)Nc1ccc(N2CCN(C(=O)CC(C)(C)C)CC2)cc1 [Compound 2]
[1]; Conc. 0.0005%
  Effect (up-regulation scale): ++ (41-60)

## CC1=C(CC/C(C)=C/COC[C@@H](O)[C@@H](O)[C@H](O)[C@H](O)CO)C(C)(C)C(C)CC1 (stereo partly drawn) [Chalmicrin, 1-O—[(E)-3-Methyl-5-(2,5,6,6-tetramethyl-1-cyclohexen-1-yl)-2-pentenyl]-D-mannitol]
[1]; Conc. 0.0001%
  Effect (up-regulation scale): ++++ (>81)

## CCOc1ccc(C(=O)CC(Sc2ccc(Cl)cc2)C(=O)O)cc1 (stereo not shown) [Compound 5]
[2]; Conc. 0.00001%
  Effect (up-regulation scale): ++ (41-60)

## CC(C)CN(Cc1ccc(OS(C)(=O)=O)cc1)S(=O)(=O)c1ccccc1 [Compound 1]
[2]; Conc. 0.00005%
  Effect (up-regulation scale): ++ (41-60)

## CC/C=C\CCCCCO [cis-6-Nonenol]
[1]; Conc. 0.0001%
  Effect (down-regulation scale): − (21-40)

## CCC=CCC=CCCO [3,6-Nonadienol]
[2]; Conc. 0.01%
  Effect (down-regulation scale): − (21-40)

## CCCCc1ccc(C(=O)Nc2cccc(C3NC(=S)N(C)C(C)=C3C(=O)OCCOC)c2)cc1 (stereo not shown) [Compound 3]
[2]; Conc. 0.00005%
  Effect (up-regulation scale): ++ (41-60)

## CCOCCCNC(=O)c1coc(CN(CCCOCC)C(=O)Nc2ccccc2C)n1 [Compound 4]
[2]; Conc. 0.00005%
  Effect (up-regulation scale): ++ (41-60)
